Source: patent US7078209B2, “CAK inhibitors and uses thereof” (Vertex Pharmaceuticals Incorporated, priority 2001, dated 2006)

Target: CDK activating kinase (CAK) from Candida albicans (Candida albicans, UniProt A0A1D8PH53)
Assay: Candida albicans CAK kinase assay: phosphorylation of human CDK2 with 33P labeled ATP
Format: biochemical
Details: 2 nM CAK, 0.3 μM CDK2·FSBA, 10 μM ATP, room temperature, pH 7.5
Procedure: Activity of CDK activating kinase (CAK) from Candida albicans was measured by following the phosphorylation of human cyclin dependent kinase 2 (CDK 2) with ^33P labeled ATP. Reactions were carried out at room temperature in 100 mM HEPES, pH 7.5, 1 mM MgCl2, 100 mM NaCl and 1 mM DTT. Final concentrations of CAK and CDK2 were 2 nM and 300 nM, respectively. The CDK-2 substrate was inactivated with 5′ fluorosulfonylbenzoyladenosine (FSBA) to oblate its intrinsic ATPase activity. Test compounds in DMSO (final concentrations 30 μM, 1.5% DMSO) were first incubated with CAK and CDK2 for 40 minutes, then the reaction initiated by addition of ^33P ATP (final concentration 10 μM, specific activity=[…], NEN, Boston, Mass.). The reaction was allowed to proceed for 40 minutes and quenched by addition of 10% TCA containing 250 mM ATP. The quenched reaction was harvested onto GF/C glass fiber filter plates (Packard, Meriden, Conn.) using a Tomtec 9600 cell harvester (Tomtec, Hamden, Conn.), washed with 5% TCA and water. The plates were then treated with 50 μl of scintillation fluid and counted using a Packard top count (Packard, Meriden, Conn.). Ki values for inhibitory compounds were determined using the same assay at a series of compound concentrations.
• 100 mM HEPES, pH 7.5 • 1 mM MgCl2 • 100 mM NaCl • 1 mM DTT • 2 nM CAK • 0.3 μM CDK2·FSBA • 1.5% DMSO (compounds are dissolved in DMSO) • 10 μM ATP (specific activity·1.25e9 μCi/mol ATP)

CDK activating kinase (CAK) from Candida albicans, sequence (A0A1D8PH53 entry or part of it): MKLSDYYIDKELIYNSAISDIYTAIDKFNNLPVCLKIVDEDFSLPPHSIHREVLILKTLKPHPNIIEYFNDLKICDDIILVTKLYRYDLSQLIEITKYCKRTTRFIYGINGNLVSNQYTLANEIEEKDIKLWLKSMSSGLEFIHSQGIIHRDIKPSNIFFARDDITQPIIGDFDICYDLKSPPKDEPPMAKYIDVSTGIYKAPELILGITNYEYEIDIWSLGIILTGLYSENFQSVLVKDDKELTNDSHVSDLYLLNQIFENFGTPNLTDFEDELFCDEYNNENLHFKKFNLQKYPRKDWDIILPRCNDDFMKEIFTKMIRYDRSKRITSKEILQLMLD

SMILES | Ki
N#Cc1c(N)c(C(=O)c2cccc(I)c2)n2ccccc12 [Compound 1] | 60 nM
COc1cccc(C(=O)c2c(N)c(C#N)c3ccccn23)c1 [Compound 2] | 210 nM
N#Cc1c(N)c(C(=O)c2cccc(Cl)c2)n2ccccc12 [Compound 3] | 290 nM
N#Cc1c(N)c(C(=O)c2ccc3ccccc3c2)n2ccccc12 [Compound 4] | 540 nM
N#Cc1c(N)c(C(=O)c2ccc(Cl)c(Cl)c2)n2ccccc12 [Compound 5] | 640 nM
N#Cc1c(N)c(C(=O)c2ccc(Cl)cc2)n2ccccc12 [Compound 9] | 1300 nM
N#Cc1c(N)c(C(=O)c2ccc(Br)cc2)n2ccccc12 [Compound 11] | 1900 nM
COc1ccc(C(=O)c2c(N)c(C#N)c3ccccn23)cc1 [Compound 12] | 2400 nM

Continued, values first:

Ki | SMILES
880 nM | N#Cc1c(N)c(C(=O)c2ccc(F)cc2)n2ccccc12 [Compound 6]
940 nM | COc1ccccc1C(=O)c1c(N)c(C#N)c2ccccn12 [Compound 7]
1000 nM | N#Cc1c(N)c(C(=O)c2ccc(F)c(F)c2)n2ccccc12 [Compound 8]
1500 nM | N#Cc1c(N)c(C(=O)c2ccc(OC(F)(F)F)cc2)n2ccccc12 [Compound 10]
> 30000 nM | CC(=O)Nc1c(C#N)c2ccccn2c1C(=O)c1ccc(F)cc1 [Compound 13]
